# Laboratory results reported in patent publication US11912668B2, “GCN2 and perk kinase inhibitors and methods of use thereof” (Deciphera Pharmaceuticals, LLC, priority 2020, dated 2024).
# Tests used:
# PERK kinase = PERK kinase (Homo sapiens (Human), UniProt Q9NZJ5); assay: Biochemical assay for PERK (coupled pyruvate kinase/lactate dehydrogenase assay); conditions: 1 mM ATP, rate from 2-3 h time frame
# Protocol: Activity of PERK kinase was determined spectroscopically using a coupled pyruvate kinase/lactate dehydrogenase assay that continuously monitors the ATP hydrolysis-dependent oxidation of NADH (e.g., Schindler et al. Science (2000) 289: 1938-1942). Assays were conducted in 384-well plates (100 μL final volume) using 10 nM PERK (from Beryllium), 0.25 mg/mL Myelin Basic Protein substrate, 1.5 units pyruvate kinase, 2.1 units lactate dehydrogenase, 1 mM phosphoenol pyruvate, 0.28 mM NADH and 1 mM ATP in assay buffer (100 mM Tris, pH 7.5, 15 mM MgCl2, 0.5 mM DTT, 0.004% (w/v) BSA, and 0.004% Triton X-100). Inhibition of PERK was measured by adding serial diluted test compound (final assay concentration of 1% DMSO). A decrease in absorption at 340 nm was monitored continuously for 6 hours at 30° C. on a multi-mode microplate reader (BioTek). The reaction rate was calculated using the 2-3 h time frame. The reaction rate at each concentration of compound was converted to percent inhibition using controls (i.e. reaction with no test compound and reaction with a known inhibitor) and IC50 values were calculated using software routines in Prism (GraphPad software).
# GCN2 kinase = GCN2 kinase (Homo sapiens (Human), UniProt Q9P2K8); assay: Biochemical assay for GCN2 (TR-FRET kinase activity assay); conditions: 1 mM ATP, 3-hour incubation
# Protocol: Activity of GCN2 kinase was determined using a TR-FRET kinase activity assay (e.g. Riddle et al. Analytical Biochemistry (2006) 356(1) 108-116). Assays were conducted in 384-well plates (13 μL assay volume) using 2 nM GCN2 (Carna Biosciences), 130 nM GFP-EIf2α (Invitrogen), 0.2 mg/mL E. coli tRNA (sigma) and 1 mM ATP in kinase buffer (Invitrogen). Inhibition of GCN2 was measured by adding serial diluted test compound (final assay concentration of 0.5% DMSO) followed by a 3-hour incubation. Tb-peIF2α (pSer52) antibody (Invitrogen) (2 nM final assay concentration) in kinase buffer containing ETDA (final assay concentration of 20 mM) was added. After a 60 min incubation at room temperature, TR-FRET was monitored using an excitation wavelength of 340 nm and emission wavelengths of 490 nm and 520 nm. The emission ratio (520/490) at each compound concentration of was converted to percent inhibition using controls (i.e. reaction with no test compound and reaction with a known inhibitor) and IC50 values were calculated by fitting a four-parameter sigmoidal curve to the data using Prism (GraphPad software).
# CCRF-CEM leukemia cells = assay: CCRF-CEM ASNase cell proliferation assay, phenotypic assay for cellular inhibition of GCN2; type: cell-based; conditions: Homo sapiens; ASNase treated CCRF-CEM cells, 1 mU/mL ASNase, 72 h
# Protocol: CCRF-CEM leukemia cells (catalog #CCL-116) were obtained from the American Type Culture Collect (ATTC, Manassas, VA). Cells were grown in RPMI-1640 medium supplemented with 10% heat-inactivated fetal bovine serum (Invitrogen, Carlsbad, CA) and 1% Penicillin/Streptomycin/L-Glutamine at 37° C., 5% CO2, and 95% humidity. Cells were expanded until reaching one million cells per mL at which time they are subcultured or harvested for assay use. Ten thousand cells per well in 200 μL RPMI-1640 supplemented with 10% heat-inactivated fetal bovine serum and 1% Penicillin/Streptomycin were dispensed into a 96-well black clear bottom plate. A serial dilution of test compound and 1 mU/mL ASNase was added in triplicate and plates were incubated for 72 h at 37° C., 5% CO2, and 95% humidity. At the end of the incubation, 40 μL of a […] solution of resazurin (Sigma, St. Louis, MO) in PBS was added to each well of the plate and plates were incubated for an additional 6 h at 37° C., 5% CO2, and 95% humidity. Plates were read on a Synergy2 or equivalent reader (Biotek, Winooski VT) using an excitation of 540 nm and an emission of 600 nm. Data was analyzed using GraphPad Prism software (GraphPad, San Diego, CA) to calculate IC50 values.
# [1] = test system: ATF4 in CCRF-CEM leukemia cells (PERK); assay: CCRF-CEM TG ATF4 ELISA, phenotypic assay for cellular inhibition of PERK preactivated by thapsigargin; type: cell-based; conditions: Homo sapiens; Thapsigargin (1 μM) stimulated CCRF-CEM cells
# Protocol: CCRF-CEM leukemia cells (catalog #CCL-116) were obtained from the American Type Culture Collection (ATTC, Manassas, VA). Briefly, cells were grown in RPMI-1640 medium supplemented with 10% heat-inactivated fetal bovine serum (Invitrogen, Carlsbad, CA) and 1% Penicillin/Streptomycin/L-Glutamine at 37° C., 5% CO2, and 95% humidity. Cells were expanded until reaching one million cells per mL at which time they were subcultured or harvested for assay use. One million five hundred thousand cells per well in 1 mL complete growth medium were dispensed into 12-well plates and incubated overnight. A serial dilution of test compound was added and cells were incubated at 37° C., 5% CO2, and 95% for three hours, then 1 μM thapsigargin was added and cells were incubated for an additional hour at 37° C., 5% CO2, and 95%. Cells were lysed then ATF4 levels were measured using an ELISA assay (Proteintech, Rosemont, IL). Absorbance was measured at 450 nm and 544 nM using a Synergy2 or equivalent reader (Biotek, Winooski VT). Data was analyzed using PRISM software (Graphpad, San Diego, CA) to calculate IC50 values.
# GCN2 kinase, sequence (Q9P2K8 whole entry): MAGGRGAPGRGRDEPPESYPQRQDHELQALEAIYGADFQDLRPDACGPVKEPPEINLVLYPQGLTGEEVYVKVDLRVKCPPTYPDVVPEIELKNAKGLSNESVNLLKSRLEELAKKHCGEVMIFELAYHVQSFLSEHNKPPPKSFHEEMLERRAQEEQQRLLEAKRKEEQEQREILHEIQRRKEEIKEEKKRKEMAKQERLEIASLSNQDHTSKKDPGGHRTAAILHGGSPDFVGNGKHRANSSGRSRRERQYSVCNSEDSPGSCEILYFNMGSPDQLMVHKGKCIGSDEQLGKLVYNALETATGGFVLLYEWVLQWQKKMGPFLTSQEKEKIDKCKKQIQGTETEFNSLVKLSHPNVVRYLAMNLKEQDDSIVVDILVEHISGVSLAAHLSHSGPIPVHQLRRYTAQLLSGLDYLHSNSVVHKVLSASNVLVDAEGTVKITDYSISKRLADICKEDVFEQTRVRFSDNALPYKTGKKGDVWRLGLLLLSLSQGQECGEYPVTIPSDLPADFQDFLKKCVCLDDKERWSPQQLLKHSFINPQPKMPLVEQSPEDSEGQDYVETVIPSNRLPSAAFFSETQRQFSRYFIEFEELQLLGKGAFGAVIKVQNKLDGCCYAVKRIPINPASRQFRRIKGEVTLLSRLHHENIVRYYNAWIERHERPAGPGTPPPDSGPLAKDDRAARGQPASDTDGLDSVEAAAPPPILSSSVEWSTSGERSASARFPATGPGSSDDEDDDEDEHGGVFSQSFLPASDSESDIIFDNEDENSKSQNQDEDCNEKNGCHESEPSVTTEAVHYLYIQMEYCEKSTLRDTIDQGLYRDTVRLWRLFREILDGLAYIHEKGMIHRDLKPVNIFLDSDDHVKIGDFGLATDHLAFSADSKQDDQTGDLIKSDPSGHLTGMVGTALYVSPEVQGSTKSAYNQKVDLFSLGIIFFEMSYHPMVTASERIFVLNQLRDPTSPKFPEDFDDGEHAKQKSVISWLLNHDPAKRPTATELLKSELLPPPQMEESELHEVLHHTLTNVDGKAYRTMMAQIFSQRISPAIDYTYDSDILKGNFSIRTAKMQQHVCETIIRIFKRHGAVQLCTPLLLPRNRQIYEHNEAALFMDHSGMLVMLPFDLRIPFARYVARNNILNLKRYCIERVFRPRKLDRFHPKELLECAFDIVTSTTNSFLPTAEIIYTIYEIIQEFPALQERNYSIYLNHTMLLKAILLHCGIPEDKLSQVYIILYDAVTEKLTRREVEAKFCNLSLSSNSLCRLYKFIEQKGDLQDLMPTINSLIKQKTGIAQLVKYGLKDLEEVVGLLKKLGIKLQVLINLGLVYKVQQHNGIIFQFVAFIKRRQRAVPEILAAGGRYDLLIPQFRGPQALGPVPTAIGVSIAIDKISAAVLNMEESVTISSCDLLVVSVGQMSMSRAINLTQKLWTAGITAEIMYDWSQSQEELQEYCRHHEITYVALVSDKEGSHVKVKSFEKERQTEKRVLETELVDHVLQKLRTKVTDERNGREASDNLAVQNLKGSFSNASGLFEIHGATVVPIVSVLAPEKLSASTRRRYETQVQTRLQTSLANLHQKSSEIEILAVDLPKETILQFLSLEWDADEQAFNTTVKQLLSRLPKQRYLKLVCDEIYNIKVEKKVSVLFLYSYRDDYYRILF
# PERK kinase, sequence (Q9NZJ5 other isoform, or with tags, fused parts or gaps): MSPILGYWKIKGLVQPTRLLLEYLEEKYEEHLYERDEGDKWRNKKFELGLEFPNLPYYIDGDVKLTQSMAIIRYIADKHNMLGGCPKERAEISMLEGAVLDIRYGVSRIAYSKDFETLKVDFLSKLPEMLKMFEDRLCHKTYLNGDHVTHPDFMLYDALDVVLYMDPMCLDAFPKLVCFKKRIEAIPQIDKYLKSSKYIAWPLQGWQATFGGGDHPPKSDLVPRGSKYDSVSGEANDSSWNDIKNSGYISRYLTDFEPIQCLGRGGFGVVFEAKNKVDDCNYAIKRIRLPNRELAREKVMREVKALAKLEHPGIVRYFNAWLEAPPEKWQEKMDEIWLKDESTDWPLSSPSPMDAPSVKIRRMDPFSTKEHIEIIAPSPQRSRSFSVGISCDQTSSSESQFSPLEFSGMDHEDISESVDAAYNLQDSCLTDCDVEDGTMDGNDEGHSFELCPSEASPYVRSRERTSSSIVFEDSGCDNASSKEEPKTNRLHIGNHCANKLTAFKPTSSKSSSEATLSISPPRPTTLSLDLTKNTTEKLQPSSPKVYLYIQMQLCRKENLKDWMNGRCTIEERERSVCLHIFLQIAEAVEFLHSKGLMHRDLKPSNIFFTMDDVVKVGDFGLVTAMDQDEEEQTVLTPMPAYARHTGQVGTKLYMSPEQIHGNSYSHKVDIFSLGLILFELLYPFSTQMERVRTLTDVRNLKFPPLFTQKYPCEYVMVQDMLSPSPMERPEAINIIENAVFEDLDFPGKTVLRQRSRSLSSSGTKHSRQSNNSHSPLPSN
SMILES,IC50 (PERK kinase),IC50 (GCN2 kinase),IC50 (CCRF-CEM leukemia cells),IC50 [1]
"CNc1cc2ncc(-c3cccc(NS(=O)(=O)c4cc(Cl)cc(CO)c4Cl)c3F)cc2cn1 [Example 4, 2,5-dichloro-N-(2-fluoro-3-(7-(methylamino)-1,6-naphthyridin-3-yl)phenyl)-3-(hydroxymethyl)benzenesulfonamide]",≤ 100 nM,≤ 100 nM,1000 to 10000 nM,≤ 100 nM
CNCCNc1nc2nc(NC)ncc2cc1-c1cccc(NS(=O)(=O)c2cc(Cl)cnc2OC)c1F [Example 101],1000 to 10000 nM,100 to 500 nM,–,–
CNc1ncc2cc(-c3cc(F)cc(NS(=O)(=O)c4cc(Cl)cnc4OC)c3)c(OC)nc2n1 [Example 103],100 to 500 nM,100 to 500 nM,–,–
CNc1nc2nc(N)ncc2cc1-c1cc(Cl)cc(NS(=O)(=O)c2cc(Cl)cnc2OC)c1 [Example 104],1000 to 10000 nM,1000 to 10000 nM,–,–
CNc1ncc2cc(-c3cc(F)cc(NS(=O)(=O)c4cc(Cl)cnc4OC)c3)c(NCCOC)nc2n1 [Example 105],1000 to 10000 nM,100 to 500 nM,–,–
CNc1ncc2cc(-c3cc(F)cc(NS(=O)(=O)c4cc(Cl)cnc4OC)c3)c(NC[C@@H](C)OC)nc2n1 [Example 107],1000 to 10000 nM,500 to 1000 nM,–,–
CNc1ncc2cc(-c3cc(F)cc(NS(=O)(=O)c4cc(Cl)cnc4OC)c3)c(NC[C@H](C)OC)nc2n1 [Example 108],1000 to 10000 nM,500 to 1000 nM,–,–
CNc1ncc2cc(-c3cccc(NS(=O)(=O)c4cc(Cl)cc(C(N)=O)c4Cl)c3F)c(NC)nc2n1 [Example 112],1000 to 10000 nM,1000 to 10000 nM,–,–
CNc1nc2nc(NCC(F)(F)F)ncc2cc1-c1cccc(NS(=O)(=O)c2cc(Cl)cnc2OC)c1F [Example 116],100 to 500 nM,≤ 100 nM,–,–
CNc1nc2nc(NC3CCC3)ncc2cc1-c1cccc(NS(=O)(=O)c2cc(Cl)cnc2OC)c1F [Example 118],100 to 500 nM,≤ 100 nM,–,–
CNc1nc2nc(NC3CCCC3)ncc2cc1-c1cccc(NS(=O)(=O)c2cc(Cl)cnc2OC)c1F [Example 119],100 to 500 nM,≤ 100 nM,–,–
CNc1ncc2cc(-c3cccc(NS(=O)(=O)c4cc(F)cnc4OC)c3F)c(NC)nc2n1 [Example 122],100 to 500 nM,≤ 100 nM,–,–
CNc1ncc2cc(-c3cccc(NS(=O)(=O)c4cc(Cl)cnc4OC4COC4)c3F)c(NC)nc2n1 [Example 125],500 to 1000 nM,100 to 500 nM,–,–
COc1cc(OC)c(S(=O)(=O)Nc2cccc(-c3cc4cnc(N)nc4nc3OC)c2F)cc1Cl [Example 126],500 to 1000 nM,1000 to 10000 nM,–,–
CNc1ncc2cc(-c3cccc(NS(=O)(=O)c4cc(C(C)=O)ccc4Cl)c3F)c(NC)nc2n1 [Example 133],100 to 500 nM,100 to 500 nM,–,–
CNc1ncc2cc(-c3cccc(NS(=O)(=O)c4ccc(Cl)nc4OC)c3F)c(NC)nc2n1 [Example 142],100 to 500 nM,100 to 500 nM,–,–
CNc1ncc2cc(-c3ccnc(NS(=O)(=O)c4cc(Cl)cnc4OC)c3F)c(NC)nc2n1 [Example 144],100 to 500 nM,100 to 500 nM,–,–
CNc1ncc2cc(-c3cccc(NS(=O)(=O)c4cc(C#N)ccc4OC)c3F)c(NC)nc2n1 [Example 145],500 to 1000 nM,100 to 500 nM,–,–
CNc1ncc2cc(-c3cccc(NS(=O)(=O)c4cc(Cl)cnc4OC)c3F)c(OCCOC)nc2n1 [Example 147],100 to 500 nM,≤ 100 nM,–,–

SMILES,IC50 (PERK kinase),IC50 (GCN2 kinase),IC50 (CCRF-CEM leukemia cells),IC50 [1]
CNc1ncc2cc(-c3cccc(NS(=O)(=O)c4cc(C5CC5)cnc4OC)c3F)c(NC)nc2n1 [Example 153],100 to 500 nM,≤ 100 nM,–,–
CNc1ncc2cc(-c3cccc(NS(=O)(=O)c4cc(Cl)cnc4OC4CC4)c3F)c(NC)nc2n1 [Example 154],100 to 500 nM,100 to 500 nM,–,–
CNc1nc2nc(N)ncc2cc1-c1ccnc(NS(=O)(=O)c2cc(Cl)cnc2OC)c1F [Example 155],100 to 500 nM,100 to 500 nM,–,–
CNc1ncc2cc(-c3cccc(NS(=O)(=O)c4cccnc4OC)c3F)c(NC)nc2n1 [Example 156],500 to 1000 nM,100 to 500 nM,–,–
CNc1ncc2cc(-c3cccc(NS(=O)(=O)c4cc(Cl)cnc4OC)c3F)c(OC)cc2n1 [Example 159],≤ 100 nM,≤ 100 nM,≤ 100 nM,500 to 1000 nM
CNc1ncc2cc(-c3cccc(NS(=O)(=O)c4cc(Cl)c[nH]c4=O)c3F)c(NC)nc2n1 [Example 160],1000 to 10000 nM,500 to 1000 nM,–,–
CNc1ncc2cc(-c3cccc(NS(=O)(=O)c4ccc(Cl)cc4OC)c3F)c(NC)nc2n1 [Example 161],100 to 500 nM,100 to 500 nM,–,–
CNc1cnc(OC)c(S(=O)(=O)Nc2cccc(-c3cc4cnc(NC)cc4nc3C)c2F)c1 [Example 162],100 to 500 nM,≤ 100 nM,≤ 100 nM,–
CNc1ncc2cc(-c3cc(NS(=O)(=O)c4cc(Cl)cnc4OC)ccn3)ccc2n1 [Example 163],1000 to 10000 nM,1000 to 10000 nM,–,–
CNc1nc2nc(NC(C)=O)ncc2cc1-c1cc(F)cc(NS(=O)(=O)c2cc(Cl)cnc2OC)c1 [Example 164],100 to 500 nM,≤ 100 nM,100 to 500 nM,1000 to 10000 nM
COc1nc2nc(N)ncc2cc1-c1cccc(NS(=O)(=O)c2cc(Cl)cnc2OC)c1F [Example 165],≤ 100 nM,≤ 100 nM,≤ 100 nM,1000 to 10000 nM
CNc1ncc2cc(-c3cccc(NS(=O)(=O)c4ncccc4OC)c3F)c(NC)nc2n1 [Example 166],1000 to 10000 nM,1000 to 10000 nM,–,–
COc1cc2nc(N)ncc2cc1-c1cccc(NS(=O)(=O)c2cc(Cl)cc(CO)c2Cl)c1F [Example 167],≤ 100 nM,≤ 100 nM,≤ 100 nM,≤ 100 nM
CNc1ncc2cc(-c3cccc(NS(=O)(=O)c4cc(OC)ccc4Cl)c3F)c(NC)nc2n1 [Example 168],≤ 100 nM,≤ 100 nM,100 to 500 nM,1000 to 10000 nM
CNc1ncc2cc(-c3cccc(NS(=O)(=O)c4cc(Br)cnc4OC)c3F)c(NC)nc2n1 [Example 169],100 to 500 nM,≤ 100 nM,–,–
CNC(=O)c1cc(Cl)cc(S(=O)(=O)Nc2cccc(-c3cc4cnc(NC)nc4nc3NC)c2F)c1Cl [Example 170],1000 to 10000 nM,1000 to 10000 nM,–,–
CNc1cc2nc(N)c(-c3cccc(NS(=O)(=O)c4cc(Cl)cc(CO)c4Cl)c3F)cc2cn1 [Example 171],–,–,≤ 100 nM,≤ 100 nM
CNc1ncc2cc(-c3cccc(NS(=O)(=O)c4cc(Cl)cc(CO)c4F)c3F)c(NC)nc2n1 [Example 176],≤ 100 nM,≤ 100 nM,≤ 100 nM,1000 to 10000 nM
